In series [1] the target is T1, Human Neuropeptide Y2 Receptor (Homo sapiens, UniProt P49146).
T1 construct: purchased CHEMICON HTS066M
T1 sequence (P49146 1-381): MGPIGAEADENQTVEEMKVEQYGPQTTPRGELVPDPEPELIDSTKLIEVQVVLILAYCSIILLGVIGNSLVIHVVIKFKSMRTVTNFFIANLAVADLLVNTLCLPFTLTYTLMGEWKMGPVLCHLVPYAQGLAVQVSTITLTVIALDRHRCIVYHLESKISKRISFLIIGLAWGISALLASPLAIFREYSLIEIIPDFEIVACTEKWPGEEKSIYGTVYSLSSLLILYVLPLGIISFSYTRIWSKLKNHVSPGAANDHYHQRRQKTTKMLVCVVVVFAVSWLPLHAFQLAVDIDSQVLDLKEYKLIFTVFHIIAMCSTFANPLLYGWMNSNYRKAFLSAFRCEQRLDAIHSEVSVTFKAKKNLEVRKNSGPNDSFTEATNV
As to the kind of experiment: Radioligand binding competition assay (RLB). Summed up:
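Filtration competition binding on membranes from cells expressing the receptor, 0.5 μg protein/well, in 50 mM HEPES, 5 mM MgCl2, 1 mM CaCl2, pH 7.4, with 0.2% ovalbumin. Incubation ran 2 h at room temperature, followed by GF/C filtration and scintillation counting. IC50 came from nonlinear sigmoidal fits.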

In series [2] the target is T2, human NPY1 receptor (hY1R) (Homo sapiens, UniProt P25929).
T2 construct: expressed in transfected cells; host or cells: CHO-K1
T2 sequence (P25929 1-384): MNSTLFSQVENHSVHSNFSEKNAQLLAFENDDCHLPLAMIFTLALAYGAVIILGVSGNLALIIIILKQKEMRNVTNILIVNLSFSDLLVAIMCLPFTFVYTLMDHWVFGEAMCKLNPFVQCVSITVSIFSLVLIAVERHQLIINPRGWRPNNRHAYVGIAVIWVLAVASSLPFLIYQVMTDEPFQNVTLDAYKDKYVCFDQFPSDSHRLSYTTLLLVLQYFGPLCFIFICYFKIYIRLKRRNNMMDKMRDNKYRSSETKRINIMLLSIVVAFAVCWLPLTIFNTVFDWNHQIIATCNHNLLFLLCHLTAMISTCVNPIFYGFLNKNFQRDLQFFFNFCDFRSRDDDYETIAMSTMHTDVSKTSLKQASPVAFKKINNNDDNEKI
Description: HTRF cAMP Gi assay, hY1R. It counts as cell-based. The note with it: CHO-K1 cells.

Series [3] deals with T3, human NPY4 receptor (hY4R) (Homo sapiens, UniProt P50391).
T3 construct: expressed in transfected cells; host or cells: CHO-K1
T3 sequence (P50391 whole entry): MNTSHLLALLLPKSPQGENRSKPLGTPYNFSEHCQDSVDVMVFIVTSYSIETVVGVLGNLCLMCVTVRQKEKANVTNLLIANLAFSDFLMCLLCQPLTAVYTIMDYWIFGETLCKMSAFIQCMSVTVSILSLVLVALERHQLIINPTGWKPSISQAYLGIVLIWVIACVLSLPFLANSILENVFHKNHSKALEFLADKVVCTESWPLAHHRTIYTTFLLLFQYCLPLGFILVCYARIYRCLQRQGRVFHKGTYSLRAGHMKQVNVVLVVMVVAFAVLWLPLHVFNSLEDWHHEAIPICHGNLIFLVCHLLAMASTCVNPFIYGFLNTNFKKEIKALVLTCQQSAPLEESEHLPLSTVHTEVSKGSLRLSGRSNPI
Description: HTRF cAMP Gi assay, hY4R. Type of series: cell-based. To be noted: CHO-K1 cells.

A short description of another series: Solubility determination. To be noted: for Sol6: pH 6; for Sol7: pH 7. Summed up:
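Sample: TFA-salt peptide at 10 mg/ml target in 0.1 M Na diphosphate, pH 6.4 or 7.0, shaken 2 h RT, filtered, diluted to 1 mg/ml.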

Series [4] concerns the target T4, human NPY5 receptor (hY5R) (Homo sapiens, UniProt Q15761).
T4 sequence (Q15761 1-445): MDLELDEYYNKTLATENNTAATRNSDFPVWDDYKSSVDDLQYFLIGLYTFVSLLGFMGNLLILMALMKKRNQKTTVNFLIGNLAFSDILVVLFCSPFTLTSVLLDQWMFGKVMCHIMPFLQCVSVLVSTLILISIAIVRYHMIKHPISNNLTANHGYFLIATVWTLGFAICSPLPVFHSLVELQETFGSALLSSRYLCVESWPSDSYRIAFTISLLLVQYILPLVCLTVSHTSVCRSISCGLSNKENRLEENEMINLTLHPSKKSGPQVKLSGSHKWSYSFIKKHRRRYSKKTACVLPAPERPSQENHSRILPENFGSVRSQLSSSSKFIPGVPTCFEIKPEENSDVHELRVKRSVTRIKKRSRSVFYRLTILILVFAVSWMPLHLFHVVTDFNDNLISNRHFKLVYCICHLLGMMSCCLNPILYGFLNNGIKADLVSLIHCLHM
As to the kind of experiment: HTRF cAMP Gi assay, hY5R. In general terms: TR-FRET usually uses a lanthanide donor and a delayed reading to cut background.

[5] abbreviates: Table 3, 125I-PYY(1-36) competition, read-out: Ki.

SMILES strings stand for the structures. Read-outs that look alike come from different tables or passages of the source. *1 amine or outer side, *2 acyl side, *3 side chain or, on linkers, in order; H or OH if unused. Where a SMILES comes first, the peptide text is derived from it. Side-chain parts run from the residue outwards. The star is where a group is joined. C18 diacid = O=C(O)CCCCCCCCCCCCCCCCC(=O)*; γGlu = O=C(O)[C@H](CCC(=O)[*:2])N[*:1]; Isovaleryl = CC(C)CC(=O)*; Ahx = NCCCCCC(=O)O

The Ki is the dissociation constant of the complex between target and ligand, obtained from inhibition or displacement. As a reminder, the EC50 is the concentration at which the effect is half-maximal. Higher therefore signals a less potent agent.

For `CC[C@H](C)[C@H](NC(=O)[C@H](CCC(=O)O)NC(=O)[C@H](CCC(=O)O)NC(=O)[C@@H]1CCCN1C(=O)[C@H](CO)NC(=O)[C@H](C)NC(=O)[C@H](CC(=O)O)NC(=O)[C@H](CCC(=O)O)NC(=O)[C@H](CCC(=O)O)NC(=O)[C@@H]1CCCN1C(=O)[C@H](CCCCNC(=O)CCCCCNC(=O)CC[C@H](NC(=O)CCCCCCCCCCCCCCCCC(=O)O)C(=O)O)NC(=O)[C@H](C)NC(=O)[C@@H]1CCCN1C(=O)[C@H](C)NC(=O)CC(C)C)C(=O)N[C@@H](CCC(N)=O)C(=O)N[C@@H](CCCNC(=N)N)C(=O)N[C@@H](Cc1ccc(O)cc1)C(=O)N[C@@H](Cc1ccc(O)cc1)C(=O)N[C@H](C(=O)N[C@@H](CO)C(=O)N[C@@H](CC(C)C)C(=O)N[C@@H](CCCNC(=N)N)C(=O)N[C@@H](Cc1c[nH]cn1)C(=O)N[C@@H](Cc1ccc(O)cc1)C(=O)N[C@@H](Cc1ccc(O)cc1)C(=O)N[C@@H](CC(N)=O)C(=O)N[C@@H](Cc1c[nH]c2ccccc12)C(=O)N[C@@H](CC(C)C)C(=O)N[C@H](C(=O)N[C@@H](CCCNC(=N)N)C(=O)N[C@@H](CCC(N)=O)C(=O)N[C@@H](CCCNC(=N)N)C(=O)N[C@@H](Cc1ccc(O)cc1)C(N)=O)[C@@H](C)O)C(C)C` [Compound 63, N{alpha-4}-(3-methylbutanoyl)-N{epsilon-7}-(6-[(4S)-4-carboxy-4-(17-carboxyheptadecanamido)butanamido]hexanoyl)-[4A,6A,7K,9E,17I,18Q,22V,28Y,30W,31L]-hPYY(4-36)], the Ki came to 0.93 nM in series [1] (setting [5]) and 6.6 nM in series [1] (Table 8, DMSO stock, read-out: hY2R RLB Ki (nM) DMSO). Besides, the EC50 in series [2], in series [3] and in series [4] was greater than 5 µM each time. Further, in the series “Solubility determination”, the “Sol6” value is 10.0 mg/mL. Also, the “Sol7” value in the series “Solubility determination” is greater than 10.0 mg/mL.

For `CC[C@H](C)[C@H](NC(=O)[C@H](Cc1ccc(O)cc1)NC(=O)[C@H](Cc1ccc(O)cc1)NC(=O)[C@H](CCCNC(=N)N)NC(=O)[C@H](CCC(N)=O)NC(=O)[C@@H](NC(=O)[C@H](CCC(=O)O)NC(=O)[C@H](CCC(=O)O)NC(=O)[C@@H]1CCCN1C(=O)[C@H](CO)NC(=O)[C@H](C)NC(=O)[C@H](CC(=O)O)NC(=O)[C@H](C)NC(=O)[C@H](CCC(=O)O)NC(=O)[C@@H]1CCCN1C(=O)[C@H](CCCCNC(=O)CCCCCNC(=O)CC[C@H](NC(=O)CCCCCCCCCCCCCCCCC(=O)O)C(=O)O)NC(=O)[C@H](CCC(=O)O)NC(=O)[C@@H]1CCCN1C(=O)[C@H](C)NC(=O)CC(C)C)[C@@H](C)CC)C(=O)N[C@@H](CO)C(=O)N[C@@H](CC(C)C)C(=O)N[C@@H](CCCNC(=N)N)C(=O)N[C@@H](Cc1c[nH]cn1)C(=O)N[C@@H](Cc1ccc(O)cc1)C(=O)N[C@@H](Cc1ccc(O)cc1)C(=O)N[C@@H](CC(N)=O)C(=O)N[C@@H](Cc1c[nH]c2ccccc12)C(=O)N[C@@H](CC(C)C)C(=O)N[C@H](C(=O)N[C@@H](CCCNC(=N)N)C(=O)N[C@@H](CCC(N)=O)C(=O)N[C@@H](CCCNC(=N)N)C(=O)N[C@@H](Cc1ccc(O)cc1)C(N)=O)[C@@H](C)O` [Compound 11, N{alpha-4}-(3-methylbutanoyl)-N{epsilon-7}-(6-[(4S)-4-carboxy-4-(17-carboxyheptadecanamido)butanamido]hexanoyl)[4A,7K,9E,10A,17I,18Q,22I,28Y,30W,31L]-hPYY(4-36)] (Isovaleryl-APEK([Ahx-γGlu-C18 diacid])PEADASPEEIQRYYISLRHYYNWLTRQRY-NH2), the Ki in series [1] (setting [5]) turned out to be 1.4 nM. Besides, the EC50 in series [2], in series [3] and in series [4] was greater than 5 µM each time. Besides, the “Sol6” value in “Solubility determination” was found to be 8.9 mg/mL. Further, in the series “Solubility determination”, the “Sol7” value amounted to 8.7 mg/mL.

On to `CC[C@H](C)[C@H](NC(=O)[C@H](CCC(=O)O)NC(=O)[C@H](CCC(=O)O)NC(=O)[C@@H]1CCCN1C(=O)[C@@H](NC(=O)[C@H](C)NC(=O)[C@H](CC(=O)O)NC(=O)[C@H](C)NC(=O)[C@H](CCC(=O)O)NC(=O)[C@@H]1CCCN1C(=O)[C@H](CCCCNC(=O)CCCCCNC(=O)CC[C@H](NC(=O)CCCCCCCCCCCCCCCCC(=O)O)C(=O)O)NC(=O)[C@H](CCC(=O)O)NC(=O)[C@@H]1CCCN1C(=O)[C@H](C)NC(=O)CC(C)C)[C@@H](C)O)C(=O)N[C@@H](CCC(N)=O)C(=O)N[C@@H](CCCNC(=N)N)C(=O)N[C@@H](Cc1ccc(O)cc1)C(=O)N[C@@H](Cc1ccc(O)cc1)C(=O)N[C@H](C(=O)N[C@@H](C)C(=O)N[C@@H](CC(C)C)C(=O)N[C@@H](CCCNC(=N)N)C(=O)N[C@@H](Cc1c[nH]cn1)C(=O)N[C@@H](Cc1ccc(O)cc1)C(=O)N[C@@H](Cc1ccc(O)cc1)C(=O)N[C@@H](CC(N)=O)C(=O)N[C@@H](Cc1c[nH]c2ccccc12)C(=O)N[C@@H](CC(C)C)C(=O)N[C@H](C(=O)N[C@@H](CCCNC(=N)N)C(=O)N[C@@H](CCC(N)=O)C(=O)N[C@@H](CCCNC(=N)N)C(=O)N[C@@H](Cc1ccc(O)cc1)C(N)=O)[C@@H](C)O)C(C)C` [Compound 184, N{alpha-4}-(3-methylbutanoyl)-N{epsilon-7}-(6-[(4S)-4-carboxy-4-(17-carboxyheptadecanamido)butanamido]hexanoyl)-[4A,7K,9E,10A,13T,17I,18Q,22V,23A,28Y,30W,31L]-hPYY(4-36)], for which, in series [1] (setting [5]), the Ki was 0.64 nM. The concentration for a half-maximal effect (EC50) in series [2], in series [3] and in series [4] was greater than 5 µM in each case. In addition, the “Sol6” value in the series “Solubility determination” was 9.1 mg/mL. The “Sol7” value in “Solubility determination” was found to be 9.1 mg/mL.

Consider `CC(C)CC(=O)N[C@@H](C)C(=O)N1CCC[C@H]1C(=O)N[C@@H](CCC(=O)O)C(=O)N[C@@H](CCCCNC(=O)CCCCCNC(=O)CC[C@H](NC(=O)CCCCCCCCCCCCCCCCC(=O)O)C(=O)O)C(=O)N1CCC[C@H]1C(=O)N[C@@H](CCC(=O)O)C(=O)N[C@@H](CCC(=O)O)C(=O)N[C@@H](C)C(=O)N[C@@H](C)C(=O)N[C@H](C(=O)N1CCC[C@H]1C(=O)N[C@@H](CCC(=O)O)C(=O)N[C@@H](CCC(=O)O)C(=O)N[C@@H](CC(C)C)C(=O)N[C@@H](CCC(N)=O)C(=O)N[C@@H](CCCNC(=N)N)C(=O)N[C@@H](Cc1ccc(O)cc1)C(=O)N[C@@H](Cc1ccc(O)cc1)C(=O)N[C@H](C(=O)N[C@@H](CO)C(=O)N[C@@H](CC(C)C)C(=O)N[C@@H](CCCNC(=N)N)C(=O)N[C@@H](Cc1c[nH]cn1)C(=O)N[C@@H](Cc1ccc(O)cc1)C(=O)N[C@@H](Cc1ccc(O)cc1)C(=O)N[C@@H](CC(N)=O)C(=O)N[C@@H](Cc1c[nH]c2ccccc12)C(=O)N[C@@H](CC(C)C)C(=O)N[C@H](C(=O)N[C@@H](CCCNC(=N)N)C(=O)N[C@@H](CCC(N)=O)C(=O)N[C@@H](CCCNC(=N)N)C(=O)N[C@@H](Cc1ccc(O)cc1)C(N)=O)[C@@H](C)O)C(C)C)[C@@H](C)O` [Compound 128, N{alpha-4}-(3-methylbutanoyl)-N{epsilon-7}-(6-[(4S)-4-carboxy-4-(17-carboxyheptadecanamido)butanamido]hexanoyl)-[4A,7K,9E,11A,13T,18Q,22V,28Y,30W,31L]-hPYY(4-36)], for which, in series [1] (setting [5]), the inhibition constant Ki stood at 2.91 nM. Moreover, the EC50 in series [2], in series [3] and in series [4] was greater than 5 µM throughout. In addition, the “Sol6” value in “Solubility determination” was found to be 10.0 mg/mL. Further, the “Sol7” value in the series “Solubility determination” is greater than 10.0 mg/mL.
